Results from PubChem BioAssay (NCI).
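Cells were grown in 96-well plates and exposed to each compound for 48 hours at five concentrations; endpoints were interpolated linearly between bracketing concentrations, or set to the highest concentration if not reached. Abbreviation: GI50, concentration required for 50% inhibition of growth. TGI marks complete inhibition of growth.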

Experiments:
Assay in all cases: NCI tumour cell line growth inhibition, 48 h
RPMI-8226 leukemia = test system: RPMI-8226 leukemia
SN12C renal = test system: SN12C renal
ACHN renal = test system: ACHN renal
NCI-H23 lung = test system: NCI-H23 lung
K-562 leukemia = test system: K-562 leukemia
RXF 393 renal = test system: RXF 393 renal
PC-3 prostate = test system: PC-3 prostate
SK-OV-3 ovarian = test system: SK-OV-3 ovarian
HS 578T breast = test system: HS 578T breast
U251 CNS = test system: U251 CNS
MDA-MB-435 = test system: MDA-MB-435
786-0 renal = test system: 786-0 renal
SF-539 CNS = test system: SF-539 CNS
SNB-19 CNS = test system: SNB-19 CNS
KM12 colon = test system: KM12 colon
NCI-H226 lung = test system: NCI-H226 lung
A498 renal = test system: A498 renal
NCI/ADR-RES ovarian = test system: NCI/ADR-RES ovarian
IGROV1 ovarian = test system: IGROV1 ovarian
DU-145 prostate = test system: DU-145 prostate
SF-295 CNS = test system: SF-295 CNS
MDA-MB-231 breast = test system: MDA-MB-231 breast
NCI-H522 lung = test system: NCI-H522 lung
SR leukemia = test system: SR leukemia
M14 melanoma = test system: M14 melanoma
HT29 colon = test system: HT29 colon
MOLT-4 leukemia = test system: MOLT-4 leukemia
A549 NSCLC = test system: A549 NSCLC
HOP-92 NSCLC = test system: HOP-92 NSCLC
CCRF-CEM leukemia = test system: CCRF-CEM leukemia
SK-MEL-5 melanoma = test system: SK-MEL-5 melanoma
HOP-62 NSCLC = test system: HOP-62 NSCLC
UACC-62 melanoma = test system: UACC-62 melanoma
HL-60(TB) leukemia = test system: HL-60(TB) leukemia
MALME-3M melanoma = test system: MALME-3M melanoma
HCT-15 colon = test system: HCT-15 colon
LOX IMVI melanoma = test system: LOX IMVI melanoma
TK-10 renal = test system: TK-10 renal
NCI-H460 lung = test system: NCI-H460 lung
BT-549 breast = test system: BT-549 breast
OVCAR-4 ovarian = test system: OVCAR-4 ovarian
SW-620 colon = test system: SW-620 colon
COLO 205 colon = test system: COLO 205 colon
CAKI-1 renal = test system: CAKI-1 renal
SNB-75 CNS = test system: SNB-75 CNS
OVCAR-5 ovarian = test system: OVCAR-5 ovarian
HCC-2998 colon = test system: HCC-2998 colon
SK-MEL-28 melanoma = test system: SK-MEL-28 melanoma
MCF7 breast = test system: MCF7 breast
UO-31 renal = test system: UO-31 renal
SK-MEL-2 melanoma = test system: SK-MEL-2 melanoma
EKVX NSCLC = test system: EKVX NSCLC
SF-268 CNS = test system: SF-268 CNS
UACC-257 melanoma = test system: UACC-257 melanoma

Work on CC1(C)CC[C@]23CC[C@]4(C)[C@H](CC[C@@H]5[C@@]6(C)CCCN(CO)C(C)(C)[C@@H]6CC[C@]54C)[C@H]2[C@H]1OC3 yielded a GI50 (RPMI-8226 leukemia) of 2.88 µM, a TGI (RPMI-8226 leukemia) of over 100 µM and a GI50 (SN12C renal) of 4.89 µM. For the same compound, the TGI (SN12C renal) was 18.6 µM, the GI50 (ACHN renal) was 1.87 µM and the TGI (ACHN renal) was 3.6 µM. The GI50 (NCI-H23 lung) was 2.19 µM, the TGI (NCI-H23 lung) was 5.75 µM and the GI50 (K-562 leukemia) was 2.25 µM. It also gave a TGI (K-562 leukemia) of over 100 µM, a GI50 (RXF 393 renal) of 3.27 µM and a TGI (RXF 393 renal) of 18 µM. It also gave a GI50 (PC-3 prostate) of 2.91 µM, a TGI (PC-3 prostate) of 13.9 µM and a GI50 (SK-OV-3 ovarian) of 13.9 µM. It also gave a TGI (SK-OV-3 ovarian) of 27.7 µM, a GI50 (HS 578T breast) of 3.32 µM and a TGI (HS 578T breast) of 17.1 µM. It also gave a GI50 (U251 CNS) of 2.05 µM, a TGI (U251 CNS) of 4.7 µM and a GI50 (MDA-MB-435) of 2.4 µM. For the same compound, the TGI (MDA-MB-435) was 6.67 µM, the GI50 (786-0 renal) was 1.84 µM and the TGI (786-0 renal) was 3.4 µM. It also gave a GI50 (SF-539 CNS) of 2.15 µM, a TGI (SF-539 CNS) of 4.95 µM and a GI50 (SNB-19 CNS) of 3.09 µM. The TGI (SNB-19 CNS) was 12 µM, the GI50 (KM12 colon) was 1.73 µM and the TGI (KM12 colon) was 3.5 µM. The GI50 (NCI-H226 lung) was 2.62 µM, the TGI (NCI-H226 lung) was 7.85 µM and the GI50 (A498 renal) was 12 µM. For the same compound, the TGI (A498 renal) was 25.6 µM, the GI50 (NCI/ADR-RES ovarian) was 2.02 µM and the TGI (NCI/ADR-RES ovarian) was 4.6 µM. It also gave a GI50 (IGROV1 ovarian) of 1.91 µM, a TGI (IGROV1 ovarian) of 4 µM and a GI50 (DU-145 prostate) of 3 µM. The TGI (DU-145 prostate) was 8.95 µM, the GI50 (SF-295 CNS) was 1.96 µM and the TGI (SF-295 CNS) was 3.77 µM. It also gave a GI50 (MDA-MB-231 breast) of 1.96 µM, a TGI (MDA-MB-231 breast) of 4.5 µM and a GI50 (NCI-H522 lung) of 15.9 µM. For the same compound, the TGI (NCI-H522 lung) was 31.7 µM, the GI50 (SR leukemia) was 1.87 µM and the TGI (SR leukemia) was 13.1 µM. The GI50 (M14 melanoma) was 1.8 µM, the TGI (M14 melanoma) was 4.04 µM and the GI50 (HT29 colon) was 1.86 µM. The TGI (HT29 colon) was 3.86 µM, the GI50 (MOLT-4 leukemia) was 2.99 µM and the TGI (MOLT-4 leukemia) was 10.2 µM. It also gave a GI50 (A549 NSCLC) of 2.76 µM, a TGI (A549 NSCLC) of 8.98 µM and a GI50 (HOP-92 NSCLC) of 1.68 µM. For the same compound, the TGI (HOP-92 NSCLC) was 4.75 µM, the GI50 (CCRF-CEM leukemia) was 3.49 µM and the TGI (CCRF-CEM leukemia) was over 100 µM. The GI50 (SK-MEL-5 melanoma) was 16.1 µM, the TGI (SK-MEL-5 melanoma) was 30.7 µM and the GI50 (HOP-62 NSCLC) was 2.91 µM. The TGI (HOP-62 NSCLC) was 12.4 µM, the GI50 (UACC-62 melanoma) was 4.83 µM and the TGI (UACC-62 melanoma) was 17.8 µM. It also gave a GI50 (HL-60(TB) leukemia) of 2.01 µM, a TGI (HL-60(TB) leukemia) of 5.07 µM and a GI50 (MALME-3M melanoma) of 2.64 µM. The TGI (MALME-3M melanoma) was 8.69 µM, the GI50 (HCT-15 colon) was 1.75 µM and the TGI (HCT-15 colon) was 3.71 µM. It also gave a GI50 (LOX IMVI melanoma) of 1.57 µM, a TGI (LOX IMVI melanoma) of 2.93 µM and a GI50 (TK-10 renal) of 14 µM. The TGI (TK-10 renal) was 28.7 µM, the GI50 (NCI-H460 lung) was 1.88 µM and the TGI (NCI-H460 lung) was 3.7 µM. It also gave a GI50 (BT-549 breast) of 8.31 µM, a TGI (BT-549 breast) of 26 µM and a GI50 (OVCAR-4 ovarian) of 3.42 µM. It also gave a TGI (OVCAR-4 ovarian) of 13.4 µM, a GI50 (SW-620 colon) of 1.68 µM and a TGI (SW-620 colon) of 3.24 µM. For the same compound, the GI50 (COLO 205 colon) was 1.7 µM, the TGI (COLO 205 colon) was 3.35 µM and the GI50 (CAKI-1 renal) was 1.54 µM. For the same compound, the TGI (CAKI-1 renal) was 3.3 µM, the GI50 (SNB-75 CNS) was 5.02 µM and the TGI (SNB-75 CNS) was 19.6 µM. The GI50 (OVCAR-5 ovarian) was 2.44 µM, the TGI (OVCAR-5 ovarian) was 6.7 µM and the GI50 (HCC-2998 colon) was 1.76 µM. It also gave a TGI (HCC-2998 colon) of 3.35 µM, a GI50 (SK-MEL-28 melanoma) of 1.97 µM and a TGI (SK-MEL-28 melanoma) of 3.78 µM. It also gave a GI50 (MCF7 breast) of 2.2 µM, a TGI (MCF7 breast) of 5.64 µM and a GI50 (UO-31 renal) of 9.62 µM. The TGI (UO-31 renal) was 23.6 µM, the GI50 (SK-MEL-2 melanoma) was 2.5 µM and the TGI (SK-MEL-2 melanoma) was 7.68 µM. For the same compound, the GI50 (EKVX NSCLC) was 5.7 µM, the TGI (EKVX NSCLC) was 21.3 µM and the GI50 (SF-268 CNS) was 6.61 µM. It also gave a TGI (SF-268 CNS) of 22.8 µM, a GI50 (UACC-257 melanoma) of 10.6 µM and a TGI (UACC-257 melanoma) of 24.6 µM.
